The results in this text go back to PubChem BioAssay AID328 (DTP/NCI, 2004).

Values joined by “and” are separate entries in the source; they are usually repeats but may differ in a detail not shown here. Identical values can stand only once. Toxic doses and inconclusive results are not listed.

The experiment has as its system BDF1 mice, P388 leukemia ip, median survival T/C. The experiment in a line: NCI In Vivo Anticancer Drug Screen. Data for tumor model P388 Leukemia (intraperitoneal) in B6D2F1 (BDF1) mice. As to conditions: endpoint: median survival time, higher = longer survival. Put shortly: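 Mice carrying the transplantable tumour receive compound or vehicle. Survival is followed in each arm, and the treated measure is divided by the vehicle measure.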

Where [1] appears, read: dose: 100.0 mg/kg/injection, schedule: Q01DX009 (ip), vehicle: saline with Tween-80.
Setting [2] is: dose: 200.0 mg/kg/injection, schedule: Q01DX009 (ip), vehicle: saline with Tween-80.
Where [3] appears, read: dose: 50.0 mg/kg/injection, schedule: Q01DX009 (ip), vehicle: saline with Tween-80.

`Cc1c(/C=C(\C#N)c2ccc([N+](=O)[O-])cc2)c(=O)n(-c2ccccc2)n1C`: the T/C was 103 % of control (dose: 100.0 mg/kg/injection, schedule: Q04DX003 (ip), vehicle: gum acacia); 100 % of control (dose: 200.0 mg/kg/injection, schedule: Q04DX003 (ip), vehicle: gum acacia); 100 % of control (dose: 400.0 mg/kg/injection, schedule: Q04DX003 (ip), vehicle: gum acacia).
On to `CC1(c2ccc(Cl)cc2)NC(=O)NC1=O` (centres undefined), for which the T/C by setting is: (dose: 200.0 mg/kg/injection, schedule: Q04DX003 (ip), vehicle: saline sonified) 91 % of control; (dose: 400.0 mg/kg/injection, schedule: Q04DX003 (ip), vehicle: saline sonified) 87 % of control.
Turning to `COC(=O)C[C@](O)(CCC(C)(C)O)C(=O)O[C@@H]1C(OC)=C[C@]23CCCN2CCc2cc4c(cc2[C@H]13)OCO4`, the T/C is 190 % of control (dose: 0.22 mg/kg/injection, schedule: Q01DX009 (ip), vehicle: saline); 172 % of control and 209 % of control and 215 % of control (dose: 0.25 mg/kg/injection, schedule: Q01DX009 (ip), vehicle: saline); 163 % of control (dose: 0.25 mg/kg/injection, schedule: Q03HX016 (ip), vehicle: saline); 177 % of control (dose: 0.25 mg/kg/injection, schedule: Q03HX024 (ip), vehicle: saline); 204 % of control (dose: 0.33 mg/kg/injection, schedule: Q01DX009 (ip), vehicle: saline); 110 % of control (dose: 0.5 mg/kg/injection, schedule: Q01DX006 (iv), vehicle: saline). Moreover, the T/C was 261 % of control and 294 % of control (dose: 0.5 mg/kg/injection, schedule: Q01DX009 (ip), vehicle: water); 172 % of control (dose: 0.5 mg/kg/injection, schedule: Q03HX008 (ip), vehicle: saline); 163 % of control (dose: 0.5 mg/kg/injection, schedule: Q03HX016 (ip), vehicle: saline); 236 % of control (dose: 0.5 mg/kg/injection, schedule: Q03HX024 (ip), vehicle: saline); 350 % of control and 405 % of control (dose: 1.0 mg/kg/injection, schedule: Q01DX009 (ip), vehicle: water); 165 % of control (dose: 1.0 mg/kg/injection, schedule: Q01DX009 (sc), vehicle: saline). Also, the T/C by setting is: (dose: 1.0 mg/kg/injection, schedule: Q01DX010 (oral), vehicle: saline) 115 % of control; (dose: 1.0 mg/kg/injection, schedule: Q03HX016 (ip), vehicle: saline) 109 % of control; (dose: 1.0 mg/kg/injection, schedule: Q03HX024 (ip), vehicle: saline) 100 % of control; (dose: 2.0 mg/kg/injection, schedule: Q01DX006 (iv), vehicle: saline) 205 % of control; (dose: 2.0 mg/kg/injection, schedule: Q01DX009 (ip), vehicle: water) 205 % of control; (dose: 2.0 mg/kg/injection, schedule: Q01DX009 (oral), vehicle: saline) 210 % of control. Also, the T/C was 215 % of control (dose: 2.0 mg/kg/injection, schedule: Q01DX009 (sc), vehicle: saline); 160 % of control (dose: 2.0 mg/kg/injection, schedule: Q01DX010 (oral), vehicle: saline); 235 % of control (dose: 2.0 mg/kg/injection, schedule: Q01DX010 (sc), vehicle: saline); 154 % of control (dose: 2.0 mg/kg/injection, schedule: Q04DX003 (ip), vehicle: saline); 150 % of control (dose: 4.0 mg/kg/injection, schedule: Q01DX009 (ip), vehicle: saline); 100 % of control (dose: 4.0 mg/kg/injection, schedule: Q01DX010 (sc), vehicle: saline). Besides, the T/C was 118 % of control (dose: 8.0 mg/kg/injection, schedule: Q01DX001 (ip), vehicle: saline); 90 % of control (dose: 8.0 mg/kg/injection, schedule: Q01DX010 (oral), vehicle: saline); 104 % of control (dose: 8.0 mg/kg/injection, schedule: Q04DX003 (ip), vehicle: saline); 100 % of control (dose: 8.0 mg/kg/injection, schedule: Q08DX002 (ip), vehicle: saline).
Turning to `O=C(O)C1(c2ccccc2)CC1`, the T/C by setting is: under setting [1], 109 % of control; under setting [2], 90 % of control; (dose: 400.0 mg/kg/injection, schedule: Q01DX009 (ip), vehicle: saline with Tween-80) 90 % of control.
For the compound `C=C(C)C(=O)O[C@H]1C[C@@]23O[C@@H]2CCC(=C[C@H]2OC(=O)C(=C)[C@H]12)COC3O` (some centres undefined), the T/C (dose: 9.37 mg/kg/injection, schedule: Q01DX009 (ip), vehicle: saline) is 108 % of control; the T/C (dose: 18.75 mg/kg/injection, schedule: Q01DX009 (ip), vehicle: saline) was 104 % of control; the T/C (dose: 18.75 mg/kg/injection, schedule: Q04DX003 (ip), vehicle: saline) was 113 % of control; the T/C (dose: 37.5 mg/kg/injection, schedule: Q04DX003 (ip), vehicle: saline) was 95 % of control.
For `COC(=O)CCc1ccc(NP(=O)(N2CC2)N2CC2)cc1`, the T/C runs as follows: (dose: 66.0 mg/kg/injection, schedule: Q01DX009 (ip), vehicle: saline with Tween-80) 177 % of control; (dose: 300.0 mg/kg/injection, schedule: Q04DX003 (ip), vehicle: saline with Tween-80) 154 % of control.
As for `CC(=O)c1ccc(Oc2ccc(/C(C)=N\N=C(N)N)cc2)cc1`, the T/C reads like this: (dose: 6.25 mg/kg/injection, schedule: Q01DX009 (ip), vehicle: saline) 111 % of control; (dose: 12.5 mg/kg/injection, schedule: Q01DX009 (ip), vehicle: saline) 112 % of control and 117 % of control; (dose: 16.0 mg/kg/injection, schedule: Q01DX009 (ip), vehicle: saline) 116 % of control; (dose: 25.0 mg/kg/injection, schedule: Q01DX009 (ip), vehicle: saline) 110 % of control.
Take `OCCNCCN=Cc1ccccc1O`: the T/C was 87 % of control (dose: 50.0 mg/kg/injection, schedule: Q01DX001 (ip), vehicle: saline sonified); 91 % of control (dose: 100.0 mg/kg/injection, schedule: Q01DX001 (ip), vehicle: saline sonified); 100 % of control (dose: 200.0 mg/kg/injection, schedule: Q01DX001 (ip), vehicle: saline sonified).
On to `CCCCN(CCCC)CC(C)O` (centres undefined), for which the T/C reads like this: (dose: 25.0 mg/kg/injection, schedule: Q04DX003 (ip), vehicle: saline with Tween-80) 100 % of control; (dose: 50.0 mg/kg/injection, schedule: Q04DX003 (ip), vehicle: saline with Tween-80) 104 % of control; (dose: 100.0 mg/kg/injection, schedule: Q04DX003 (ip), vehicle: saline with Tween-80) 100 % of control.
On to `CCOC(=O)/C(=C(/N)C1OC(COC(c2ccccc2)(c2ccccc2)c2ccccc2)C2OC(C)(C)OC12)C1CC(=O)N(C)C1=O` (centres undefined), for which the T/C is, setting by setting: under setting [3], 99 % of control; under setting [1], 90 % of control.
In the case of `CCOP(=O)(OCC)SCSC(C)C`, the T/C was 88 % of control (dose: 0.19 mg/kg/injection, schedule: Q01DX009 (ip), vehicle: Klucel (hydroxypropylcellulose) (HPC)) and 96 % of control (dose: 3.12 mg/kg/injection, schedule: Q01DX009 (ip), vehicle: Klucel (hydroxypropylcellulose) (HPC)).
Turning to `O=C(O)CCCCCCc1ccc2ccccc2n1`, the T/C reads like this: (dose: 50.0 mg/kg/injection, schedule: Q01DX009 (ip), vehicle: other) 105 % of control; (dose: 100.0 mg/kg/injection, schedule: Q01DX009 (ip), vehicle: other) 117 % of control; (dose: 200.0 mg/kg/injection, schedule: Q01DX009 (ip), vehicle: other) 114 % of control.
Consider `N#Cc1cccc(C[P+](c2ccccc2)(c2ccccc2)c2ccccc2)c1`, for which the T/C was 86 % of control (dose: 6.25 mg/kg/injection, schedule: Q01DX009 (ip), vehicle: Klucel (hydroxypropylcellulose) (HPC)); 95 % of control (dose: 12.5 mg/kg/injection, schedule: Q01DX009 (ip), vehicle: Klucel (hydroxypropylcellulose) (HPC)); 95 % of control and 104 % of control (dose: 17.0 mg/kg/injection, schedule: Q04DX003 (ip), vehicle: Klucel (hydroxypropylcellulose) (HPC)); 104 % of control (dose: 25.0 mg/kg/injection, schedule: Q01DX009 (ip), vehicle: Klucel (hydroxypropylcellulose) (HPC)); 86 % of control (dose: 35.0 mg/kg/injection, schedule: Q01DX009 (ip), vehicle: Klucel (hydroxypropylcellulose) (HPC)); 95 % of control and 100 % of control (dose: 40.0 mg/kg/injection, schedule: Q04DX003 (ip), vehicle: Klucel (hydroxypropylcellulose) (HPC)). In addition, under “dose: 52.5 mg/kg/injection, schedule: Q04DX003 (ip), vehicle: Klucel (hydroxypropylcellulose) (HPC)”, the T/C is 115 % of control.
On to `CCOCc1c(COc2ccc(OC)cc2)n(CC#CCOc2ccc(OC)cc2)c2ccc(Br)cc12`, for which the T/C was 101 % of control under setting [3], 93 % of control under setting [1] and 98 % of control under setting [2].
